We go through seven compounds from publication PMC9781916, “Antipsychotic- and Anxiolytic-like Properties of a Multimodal Compound JJGW08 in Rodents” (International Journal of Molecular Sciences, 2022).

In one assay the target is T1, human D2 receptor (Homo sapiens, UniProt P14416).
T1 construct: host or cells: CHO-K1
In words: Functional assay (aequorin, calcium mobilization) in CHO-K1 cells, D2 receptor. Type of assay: cell-based. More on the design: Emax: dose or concentration left out as unconfirmed. The settings on record: CHO-K1, read-out: Antagonist Mode Emax%.

In assay [1] the target is T2, human serotonin 5-HT1A receptor (Homo sapiens, UniProt P08908).
T2 construct: host or cells: CHO-K1
T2 sequence (P08908 1-422): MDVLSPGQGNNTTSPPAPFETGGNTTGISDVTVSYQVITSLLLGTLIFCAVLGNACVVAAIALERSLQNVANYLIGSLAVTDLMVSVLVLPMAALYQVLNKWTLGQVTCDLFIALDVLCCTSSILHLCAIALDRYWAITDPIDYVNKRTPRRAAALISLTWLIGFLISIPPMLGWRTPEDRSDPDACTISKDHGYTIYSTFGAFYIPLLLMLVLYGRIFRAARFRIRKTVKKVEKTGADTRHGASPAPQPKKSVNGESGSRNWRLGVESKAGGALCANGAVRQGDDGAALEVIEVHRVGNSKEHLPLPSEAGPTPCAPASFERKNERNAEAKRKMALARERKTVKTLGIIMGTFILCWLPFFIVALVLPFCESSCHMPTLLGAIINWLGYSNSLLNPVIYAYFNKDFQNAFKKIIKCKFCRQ
In words: Functional assay (aequorin, calcium mobilization) in CHO-K1 cells, 5-HT1A receptor. The following applies: CHO-K1, agonist mode. It is filed as cell-based.
Experimental: (§3) Tested and reference compounds were dissolved in dimethyl sulfoxide (DMSO) at a concentration of 10 mM. Serial dilutions were prepared in a 96-well microplate in assay buffer, and 8 to 10 concentrations were tested. […] The assay was executed according to the previously described protocol [45]. After thawing, cells were transferred to assay buffer (DMEM/HAM’s F12 with 0.1% protease-free BSA) and centrifuged. The cell pellet was resuspended in assay buffer, and coelenterazine h was added at final concentrations of 5 µM. The cell suspension was incubated at 16 °C (or 21 °C), protected from light with constant agitation for 16 h (or 4 h), and then diluted with assay buffer to the concentration of 100,000 cells/mL (or 250,000 cells/mL). After 1 h of incubation, 50 µL of the cell’s suspension was dispensed using automatic injectors built into the radiometric and luminescence plate counter MicroBeta2 LumiJET (PerkinElmer, Waltham, NA, USA) into white opaque 96-well microplates preloaded with test compounds. Immediate light emission generated following calcium mobilization was recorded for 30 s. In antagonist mode, after 25–30 min of incubation, the reference agonist was added to the above assay mix, and light emission was re-recorded. […] IC50 and EC50 values were calculated.

The test system of assay [2] is mice. Put plainly: MK-801-induced hyperlocomotion test in mice. Type of assay: in vivo. The following applies: MK-801 0.2 mg/kg ip. As to the method:
(§1) Locomotor activity was recorded in actometers separately for each mouse. After 30 min of adaptation, the number of crossings of photo beams was measured during 60 min. […] MK-801 (0.2 mg/kg, ip) was administered 15 min before the experiment, while amphetamine (2.5 mg/kg) was administered subcutaneously (sc) 30 min before the experiment. […] Values are expressed as means ± SD, n = 8–10 mice per group. Statistical analysis: one-way ANOVA (Newman–Keuls post hoc), * p < 0.05, ** p < 0.01, *** p < 0.001.
(§2) The test was performed according to the method described by Carlsson et al.. The mobility of the animals was measured in actometers, i.e., in plastic Opto M3 cages (22 × 12 × 13 cm) connected to a computer with MultiDevice Software v.1.30 (Columbus Instruments, Columbus, OH, USA). The experimental cages were equipped with infrared sources on one side and sensors receiving the emitted rays on the other side of the cage. The crossing of each beam of infrared rays was classified as motor activity. The animals were placed individually in experimental cages immediately after administration of the tested compound, 30 min before the start of the test, to adapt to the new conditions and exclude the occurrence of hyperactivity caused by the change of the environment. Spontaneous locomotor activity was measured every 5 min for 60 min. Mice received two injections: of the tested compound or reference substance (30 min before the test, ip) and of amphetamine (2.5 mg/kg, 30 min before the test, sc) or MK-801 (0.2 mg/kg, 15 min before the test, ip). Control groups received an injection of saline and amphetamine or MK-801, or two injections of saline, respectively. Olanzapine was used as a reference compound.

Assay [3] has as its system mice. Put plainly: Amphetamine-induced hyperlocomotion test in mice. It is filed as in vivo. The following applies: amphetamine 2.5 mg/kg sc. As to the method:
as §1, §2

Details of assay [4]: method as in earlier work. The following applies: ref 43 (Bubeníková et al.); cited from earlier work.
For assay [5], the system named is mice. In words: Marble burying test in mice. It is filed as in vivo. As to the method: Figure 3 The effect of JJGW08 and aripiprazole on the number of buried marbles by mice. Mice were placed individually in cages with a 5 cm bedding layer, where 20 glass balls were placed. The number of buried marbles after 30 min of the test was counted. JJGW08 was administered intraperitoneally (ip) 30 min before the test. The control group received 0.9% NaCl solution (ip) or 1% Tween (ip) for aripiprazole. Values are expressed as means ± SD in the case of one-way ANOVA (aripiprazole) or median with interquartile range in the case of Kruskal–Wallis test (JJGW08), n = 8–10 mice per group. Statistical analysis: one-way ANOVA (Newman–Keuls post hoc), and Kruskal–Wallis test (Dunn post hoc), * p < 0.05, ** p < 0.01, *** p < 0.001.
The test was conducted according to the method described by Broekkamp et al. with minor modifications. Mice were placed individually in plastic cages, identical to their home cages, that contained a layer of bedding and 20 glass balls (1.6 cm in diameter) arranged in a pattern 4 × 5. After 30 min of the experiment, the mice were removed from the cages, and the number of balls buried to at least 2/3 of their size was counted.

In another assay the test system is rats. Put plainly: Open field test after MK-801 administration in rats (MK-801-induced hyperlocomotion). Type of assay: in vivo. The following applies: MK-801 0.3 mg/kg ip. On the procedure: Figure 4 The effect of JJGW08 and clozapine on MK-801-induced hyperlocomotion in rats. After the habituation period (30 min, 24 h before the test), locomotor activity was measured individually for each animal in the special apparatus. The walked distance (cm) was monitored at 10-min intervals for 30 min, using a computerized system that tracked the animals’ movement and behavior. JJGW08 and clozapine were administered intraperitoneally (ip) 30 or 60 min before the test, respectively, while MK-801 (0.3 mg/kg) was administered ip 15 min before the start of the experiment. The control group received 0.9% NaCl solution (ip) (or 1% Tween (ip) for clozapine) and MK-801 (0.3 mg/kg, ip). Values are expressed as mean ± SD, n = 7–8 rats per group. Statistical analysis: one-way ANOVA (Newman–Keuls post hoc) * p < 0.05, ** p < 0.01, *** p < 0.001.
The experiment was evaluated according to the method described earlier. It was performed in a soundproof chamber with a 30-min habituation period 24 h before the procedure. The open field apparatus consisted of four black, octagonal, stainless steel arenas (diameter: 80 cm) with 30 cm high walls. Each arena was divided into a peripheral and central sector. The peripheral sector was defined as the region within 20 cm from the walls. The approximate light intensity was 15 lx in the central point of the arena and 4 lx close to its walls.
Individual rats were placed in the central part of the open field and allowed to explore the whole arena for 30 min under dim light (approximately 10 lx) and continuous white noise (65 dB). Forward locomotion (cm/30 min) was registered in 10-min intervals for 30 min and analyzed with the aid of a computerized video tracking system (Videomot, TSE, Bad Homburg, Germany). The arenas were cleaned between tests with 20% (v/v) alcohol and allowed to dry.
The tested compound was administered ip 30 min before the experiment at the dose range of 0.3–30.0 mg/kg, and MK-801 (0.3 mg/kg,) was administered ip 15 min before the procedure. […]

Assay [6] concerns the target T3, human serotonin 5-HT2A receptor (Homo sapiens, UniProt P28223).
T3 construct: host or cells: CHO-K1
It is filed as cell-based. The following applies: 5-HT2A.
Experimental: as §3

T3 sequence (P28223 whole entry): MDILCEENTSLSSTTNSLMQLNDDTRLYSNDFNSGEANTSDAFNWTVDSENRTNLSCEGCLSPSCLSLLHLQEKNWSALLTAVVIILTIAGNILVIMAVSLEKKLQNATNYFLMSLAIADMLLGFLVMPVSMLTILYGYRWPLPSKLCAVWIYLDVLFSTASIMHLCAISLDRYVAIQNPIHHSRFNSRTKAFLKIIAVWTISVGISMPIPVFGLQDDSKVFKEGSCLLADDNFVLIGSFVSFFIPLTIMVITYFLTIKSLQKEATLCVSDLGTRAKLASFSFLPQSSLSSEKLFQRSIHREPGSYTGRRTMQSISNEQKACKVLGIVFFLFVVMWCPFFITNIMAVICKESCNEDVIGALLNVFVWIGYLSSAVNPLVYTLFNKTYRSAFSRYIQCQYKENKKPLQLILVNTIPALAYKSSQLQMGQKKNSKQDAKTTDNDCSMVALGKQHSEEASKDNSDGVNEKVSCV
T1 sequence (P14416 whole entry): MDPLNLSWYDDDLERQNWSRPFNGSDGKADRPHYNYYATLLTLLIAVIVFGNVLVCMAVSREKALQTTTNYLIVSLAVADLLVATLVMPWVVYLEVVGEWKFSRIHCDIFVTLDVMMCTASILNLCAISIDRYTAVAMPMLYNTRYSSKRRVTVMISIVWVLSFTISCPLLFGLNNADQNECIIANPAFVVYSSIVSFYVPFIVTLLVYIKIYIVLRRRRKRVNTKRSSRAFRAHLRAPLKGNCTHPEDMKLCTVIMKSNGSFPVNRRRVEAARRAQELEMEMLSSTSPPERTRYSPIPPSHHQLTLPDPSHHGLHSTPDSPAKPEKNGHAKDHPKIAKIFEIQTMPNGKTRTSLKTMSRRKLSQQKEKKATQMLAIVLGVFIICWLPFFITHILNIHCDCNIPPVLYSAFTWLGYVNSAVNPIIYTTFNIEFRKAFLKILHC
Experimental for human D2 receptor: as §3

Consider `CN1CCc2cccc3c2[C@H]1Cc1ccc(O)c(O)c1-3` [Apomorphine, reference compound], for which the maximal effect (Emax) at human D2 receptor is 0%.
On to `COc1ccccc1N1CCN(CCCCN2C(=O)c3ccccc3C2=O)CC1` [NAN-190, reference compound], for which the maximum response (Emax) in assay [1] worked out at 6%.
For `Cc1cc2c(s1)Nc1ccccc1N=C2N1CCN(C)CC1` [Olanzapine], the results for the “reduction of MK-801-induced hyperlocomotion” value in the assay with mice [2] (0.03 mg/kg ip) and in the assay on mice [2] (0.3 mg/kg ip) were 63% and 82%, respectively. Besides, the “reduction of amphetamine-induced hyperlocomotion” value in the assay on mice [3] (0.03 mg/kg ip) came out at 54%; with mice [3] (0.3 mg/kg ip) it was 75%. Moreover, in assay [4], the “effect on MK-801-induced deficits in the prepulse inhibition test (in words)” value is reported as “restored”.
On to `O=C1CCc2ccc(OCCCCN3CCN(c4cccc(Cl)c4Cl)CC3)cc2N1` [aripiprazole], for which the “reduction of the number of buried marbles” value in the assay with mice [5] (1.25 mg/kg ip) was found to be 61%; in the assay with mice [5] (2.5 mg/kg ip) it was 69%; with mice [5] (5.0 mg/kg ip) it was 93%.
As to `CN1CCN(C2=Nc3cc(Cl)ccc3Nc3ccccc32)CC1` [clozapine], the “effect on MK-801-induced deficits in the prepulse inhibition test (in words)” value in assay [4] is “restored”. Besides, the “reduction of MK-801-induced hyperlocomotion in the open field” value in the assay with rats (10 mg/kg ip) is given as 53%; in the assay on rats (30 mg/kg ip) it was 98%.
Turning to `Cc1nc2n(c(=O)c1CCN1CCC(c3noc4cc(F)ccc34)CC1)CCCC2` [risperidone], in assay [4], the “effect on MK-801-induced deficits in the prepulse inhibition test (in words)” value is “ineffective”.
For `CC(N)Cc1c[nH]c2ccc(O)cc12` (stereo not drawn) [α-methylserotonin, reference compound], in assay [6] (agonist mode), the “Agonist Mode Emax%” value is on record as 100% and the “Agonist Mode pEC50 ± Range” value came out at 8.5 ± 0.3. Besides, the “Antagonist Mode Emax%” value in assay [6] (antagonist mode, 30 nM α-methylserotonin as reference agonist) amounted to 2%.

For orientation: Emax means the maximal effect, on the per cent scale that the assay sets.
